Consider ten molecules from ChEMBL document CHEMBL1157244, “Triterpenoid saponins from the fruits of Caryocar glabrum” (J Nat Prod, 2006).

Series [1] is described as follows: Toxicity in sheep erythrocytes assessed as hemolysis. Type of series: cell-based, Ovis aries, Erythrocyte. To be noted: for HD100: erythrocyte; for HC50: sheep erythrocytes, read-out: HD50 (the source's name).
A short description of series [2]: Toxicity in sheep erythrocytes assessed as hemolysis at >500 ug/mL. Type of series: cell-based, Ovis aries, Erythrocyte. Conditions: read-out: Activity.

Structures are written as SMILES.

Consider `CC1(C)CC[C@]2(C(=O)O)CC[C@]3(C)C(=CC[C@@H]4[C@@]5(C)C[C@H](O)[C@H](O[C@@H]6O[C@H](C(=O)O)[C@@H](O)[C@H](O[C@@H]7O[C@H](CO)[C@H](O)[C@H](O)[C@H]7O)[C@H]6O)C(C)(C)[C@@H]5CC[C@]43C)[C@@H]2C1`, for which, in series [1], the HD100 stood at 49 µM and the HC50 was 32 µM.

Take `CC1(C)CC[C@]2(C(=O)O[C@@H]3O[C@H](CO)[C@@H](O)[C@H](O)[C@H]3O)CC[C@]3(C)C(=CC[C@@H]4[C@@]5(C)CC[C@H](O[C@@H]6O[C@H](C(=O)O)[C@@H](O)[C@H](O[C@@H]7O[C@H](CO)[C@H](O)[C@H](O)[C@H]7O)[C@H]6O)[C@@](C)(CO)[C@@H]5CC[C@]43C)[C@@H]2C1`: in series [1], the HD100 was determined as 514 µM and the HC50 was 309 µM.

On to `CC1(C)CC[C@]2(C(=O)O)CC[C@]3(C)C(=CC[C@@H]4[C@@]5(C)CC[C@H](O[C@@H]6O[C@H](CO)[C@@H](O)[C@H](O[C@@H]7O[C@H](CO)[C@H](O)[C@H](O)[C@H]7O)[C@H]6O)[C@@](C)(CO)[C@@H]5CC[C@]43C)[C@@H]2C1`, for which, in series [1], the HD100 turned out to be 94 µM and the HC50 worked out at 56 µM.

Take `CC1(C)CC[C@]2(C(=O)O[C@@H]3O[C@H](CO)[C@@H](O)[C@H](O)[C@H]3O)CC[C@]3(C)C(=CC[C@@H]4[C@@]5(C)C[C@H](O)[C@H](O[C@@H]6O[C@H](CO)[C@@H](O)[C@H](O[C@@H]7O[C@H](CO)[C@H](O)[C@H](O)[C@H]7O)[C@H]6O)[C@@](C)(CO)[C@@H]5CC[C@]43C)[C@@H]2C1`: the HD100 in series [1] was more than 513 µM. In addition, the hemolysis in series [2] was determined as 10%.

As for `CC1(C)CC[C@]2(C(=O)O)CC[C@]3(C)C(=CC[C@@H]4[C@@]5(C)CC[C@H](O[C@@H]6O[C@H](C(=O)O)[C@@H](O)[C@H](O)[C@H]6O)[C@@](C)(CO)C5CC[C@]43C)[C@@H]2C1` (stereo not given in full), in series [1], the HD100 was 116 µM and the HC50 is 93 µM.

In the case of `CC1(C)CC[C@]2(C(=O)O)CC[C@]3(C)C(=CC[C@@H]4[C@@]5(C)C[C@H](O)[C@H](O[C@@H]6O[C@H](CO)[C@@H](O)[C@H](O[C@@H]7O[C@H](CO)[C@H](O)[C@H](O)[C@H]7O)[C@H]6O)[C@@](C)(CO)[C@@H]5CC[C@]43C)[C@@H]2C1`, in series [1], the HD100 came out at 24 µM and the HC50 worked out at 18 µM.

Take `CC1(C)CC[C@]2(C(=O)O)CC[C@]3(C)C(=CC[C@@H]4[C@@]5(C)CC[C@H](O[C@@H]6O[C@H](C(=O)O)[C@@H](O)[C@H](O[C@@H]7O[C@H](CO)[C@H](O)[C@H](O)[C@H]7O)[C@H]6O)C(C)(C)[C@@H]5CC[C@]43C)[C@@H]2C1` [GLYCOSIDE D]: in series [1], the HD100 was found to be 31 µM and the HC50 worked out at 19 µM.

With `CC1(C)CC[C@]2(C(=O)O)CC[C@]3(C)C(=CC[C@@H]4[C@@]5(C)C[C@H](O)[C@H](O[C@@H]6O[C@H](C(=O)O)[C@@H](O)[C@H](O[C@@H]7O[C@H](CO)[C@H](O)[C@H](O)[C@H]7O)[C@H]6O)[C@@](C)(CO)[C@@H]5CC[C@]43C)[C@@H]2C1`, in series [1], the HD100 was 121 µM and the HC50 was 66 µM.

`COC(=O)[C@H]1O[C@@H](O[C@H]2[C@@H](O)C[C@]3(C)[C@H]4CC=C5[C@@H]6CC(C)(C)CC[C@]6(C(=O)O)CC[C@@]5(C)[C@]4(C)CC[C@H]3C2(C)C)[C@H](O)[C@@H](O[C@@H]2O[C@H](CO)[C@H](O)[C@H](O)[C@H]2O)[C@@H]1O`: in series [1], the HD100 came to 303 µM and the HC50 was found to be 157 µM.

In the case of `CC1(C)CC[C@]2(C(=O)O)CC[C@]3(C)C(=CC[C@@H]4[C@@]5(C)CC[C@H](O[C@@H]6O[C@H](C(=O)O)[C@@H](O)[C@H](O[C@@H]7O[C@H](CO)[C@H](O)[C@H](O)[C@H]7O)[C@H]6O)[C@@](C)(CO)[C@@H]5CC[C@]43C)[C@@H]2C1`, in series [1], the HD100 stood at 93 µM and the HC50 amounted to 45 µM.
